By chromatographic logP is commonly meant a lipophilicity value derived from retention on a column. By inhibition is commonly meant the change of the read-out against control, counted positive when it falls.

The values below come from patent publication US20230192617A1, “AZABICYCLIC(THIO)AMIDES AS FUNGICIDAL COMPOUNDS” (Bayer CropScience Aktiengesellschaft, priority 2020, published 2023).

Data set [1] has as its system Botrytis cinerea. As to the kind of experiment: In vivo preventive test on Botrytis cinerea (grey mould). To be noted: 500 ppm of active ingredient, preventive spray on gherkin or cabbage, evaluated 4 to 5 days after inoculation, read-out: efficacy. In short, it runs like this: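 Young gherkin or cabbage plants were sprayed with compound in DMSO/acetone/Tween 80 diluted in water, then inoculated 24 hours later with a B. cinerea spore suspension. Incubation lasted 4 to 5 days: gherkin at 17° C., 90% relative humidity; cabbage at 20° C., 100% relative humidity.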

Data set [2] deals with Pyrenophora teres. In words: In vivo preventive test on Pyrenophora teres (net blotch on barley). To be noted: 240 h, 500 ppm of active ingredient, preventive spray on barley, evaluated 10 days after inoculation, read-out: efficacy. As to the method:
B-3. In Vivo Preventive Test on Pyrenophora Teres (Net Blotch on Barley) [table] The active ingredients were made soluble and homogenized in a mixture of Dimethyl sulfoxide/Acetone/Tween® 80 and then diluted in water to the desired concentration. The young plants of barley were treated by spraying the active ingredient prepared as described above. Control plants were treated only with an aqueous solution of Acetone/Dimethyl sulfoxide/Tween® 80. After 24 hours, the plants were contaminated by spraying the leaves with an aqueous suspension of Pyrenophora teres spores. The contaminated barley plants were incubated for 48 hours at 20° C. and at 100% relative humidity and then for 8 days at 20° C. and at 70-80% relative humidity.

Data set [3] in a line: Measurement of Log P values by HPLC on reversed phase columns (EEC directive 79/831 Annex V.A8). To be noted: reversed phase HPLC column. Format: physicochemical. Put shortly: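 Reversed-phase HPLC with UV detection per EEC 79/831 Annex V.A8, linear 10–95% acetonitrile gradient. Aqueous eluent: 0.1% formic acid (acidic), 0.001 M ammonium acetate (neutral), or 0.1% phosphoric acid (acidic); multiple values in one method joined by "+".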

The test system of data set [4] is Colletotrichum lindemuthianum. In words: B-8. Colletotrichum lindemuthianum in vitro cell test. Format: cell-based. Conditions: 144 h, 20 ppm of active ingredient, 6 days incubation, liquid culture, absorbance, read-out: efficacy (inhibition of fungal growth). In short, it runs like this:
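Spore suspension of C. lindemuthianum in liquid medium exposed to DMSO-solubilized compounds (final DMSO ≤1%) for 6 days. Mycelial growth read by absorbance, with inhibition calculated relative to compound-free control wells.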

The test system of a further data set is Alternaria alternata. As to the kind of experiment: Alternaria alternata in vitro cell test. Format: cell-based. To be noted: 120 h, 20 ppm of active ingredient, liquid culture, 5 days incubation, spectrometric measurement of mycelium growth, read-out: efficacy (inhibition of fungal growth). Put shortly:
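Liquid culture assay in which A. alternata spores in medium received DMSO-solubilized compound (final DMSO ≤1%). After 5 days, mycelium growth was measured spectrometrically. Inhibition was calculated against fungicide-free control wells.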

In another data set the test system is Alternaria brassicae. As to the kind of experiment: In vivo preventive test on Alternaria brassicae (leaf spot on radish or cabbage). Conditions: 500 ppm of active ingredient, preventive spray on radish or cabbage, evaluated 3 to 4 days after inoculation, read-out: efficacy. Put shortly: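 Young radish or cabbage plants were sprayed with compound dissolved in DMSO/acetone/Tween 80 and diluted in water; controls received solvent only. Inoculation by spraying A. brassicae spore suspension 24 h later, then 3–4 days at 20 °C and 100% relative humidity.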

Data set [5] relates to Colletotrichum lindemuthianum. As to the kind of experiment: In vivo preventive test on Colletotrichum lindemuthianum (leaf spot on bean). To be noted: 168 h, 500 ppm of active ingredient, preventive spray on bean, evaluated 7 days after inoculation, read-out: efficacy. Put shortly:
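Young bean plants sprayed with compound in DMSO/acetone/Tween 80 diluted in water; solvent-only controls. Inoculated 24 h later with C. lindemuthianum spore suspension, then kept 24 h at 20 °C/100% RH and 6 days at 20 °C/90% RH.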

Data set [6] relates to Botrytis cinerea. In words: B-11. Botrytis cinerea in vitro cell test. Format: cell-based. Conditions: 144 h, 20 ppm of active ingredient, 6 days incubation, liquid culture, absorbance, read-out: efficacy (inhibition of fungal growth). In short, it runs like this: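 B. cinerea spores were grown in liquid culture with compound (DMSO ≤1% final). Mycelium growth was measured spectrometrically after 6 days, with inhibition taken as absorbance relative to untreated control wells.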

A further data set has as its system Sphaerotheca fuliginea. As to the kind of experiment: In vivo preventive test on Sphaerotheca fuliginea (powdery mildew on cucurbits). To be noted: Podosphaera fuliginea, 192 h; 500 ppm of active ingredient; preventive spray on gherkin; evaluated 8 days after inoculation; read-out: efficacy. Put shortly: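 Young gherkin plants were sprayed with compound in DMSO/acetone/Tween 80 diluted in water. They were inoculated 24 h later with a spore suspension of Sphaerotheca fuliginea. Plants were then kept for 8 days at 20 °C and 70–80% relative humidity.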

In data set [7] the test system is Pyrenophora teres. As to the kind of experiment: B-10. Pyrenophora teres in vitro cell test. Format: cell-based. Conditions: 144 h, 20 ppm of active ingredient, 6 days incubation, liquid culture, absorbance, read-out: efficacy (inhibition of fungal growth). Put shortly:
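Liquid-culture assay on a P. teres spore suspension with compounds added to the medium from DMSO solutions, final DMSO ≤1%. Mycelium growth read spectrometrically after 6 days. Inhibition calculated from absorbance against untreated control wells.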

[8] abbreviates: method [a]: LC-UV, acidic range, 0.1% formic acid in water and acetonitrile as eluent.

With `Cc1ccc([C@@H](F)CNC(=O)c2c(Oc3cccc(Cl)c3)nnc3ccccc23)cc1C` (racemic) [I-048], the pest or weed control at 500 ppm (in the data set with Botrytis cinerea [1]; in the data set with Pyrenophora teres [2]; in the data set on Alternaria brassicae; in data set [5]) was 90 to 100% throughout. For the same compound, in data set [3] (setting [8]), the chromatographic logP stood at 4.05. The inhibition at 20 ppm (in [4]; in the data set with Alternaria alternata; in the data set on Botrytis cinerea [6]) was 90 to 100% each time.

As to `O=C(NC[C@H](F)c1ccc(Br)cc1Cl)c1c(Oc2cccc(C(F)F)c2)nnc2ccccc12` (racemic) [I-029], the pest or weed control at 500 ppm in the data set on Botrytis cinerea [1] lay in the range of 90 to 100%; in the data set on Pyrenophora teres [2] it was 70 to 79%; with Alternaria brassicae, 90 to 100%; in data set [5], 90 to 100%; in the data set on Sphaerotheca fuliginea, 70 to 79%. Also, the chromatographic logP in data set [3] (setting [8]) amounted to 4.01. The inhibition at 20 ppm (in data set [4]; in the data set on Alternaria alternata) was 90 to 100% each time.

With `Cc1ccc(C(F)(F)CNC(=O)c2c(Oc3cccc(C(F)(F)F)c3)cnc3c2OCCO3)c(C)c1` [I-109], the pest or weed control at 500 ppm (with Botrytis cinerea [1]; with Pyrenophora teres [2]; in the data set with Alternaria brassicae; in [5]; in the data set with Sphaerotheca fuliginea) was 90 to 100% in each case. This compound came in with a chromatographic logP in data set [3] (setting [8]) of 3.71. The inhibition at 20 ppm (in data set [4]; in the data set with Alternaria alternata) was 90 to 100% each time.

For the compound `Cc1ccc(C(F)(F)CNC(=O)c2c(Oc3cccc(C(F)(F)F)c3)cnc3ccoc23)c(C)c1` [I-066, N-[2-(2,4-dimethylphenyl)-2,2-difluoro-ethyl]-6-[3-(trifluoro-methyl)phenoxy]furo[3,2-b]pyridine-7-carboxamide], the pest or weed control at 500 ppm in the data set on Botrytis cinerea [1] lay in the range of 90 to 100%; in the data set with Pyrenophora teres [2], 70 to 79%; with Alternaria brassicae, 90 to 100%; in the data set on Sphaerotheca fuliginea, 90 to 100%. In addition, the inhibition at 20 ppm (in the data set with Pyrenophora teres [7]; in data set [4]; in the data set on Alternaria alternata; in the data set with Botrytis cinerea [6]) was 90 to 100% throughout. Also, the chromatographic logP in data set [3] (setting [8]) stood at 4.14.

For the compound `Cc1ccc(C(F)(F)CNC(=O)c2c(Oc3cccc(C4CC4)c3)nnc3ccccc23)c(C)c1` [I-218], the pest or weed control at 500 ppm lay within 90 to 100% in the data set on Botrytis cinerea [1], 80 to 89% with Pyrenophora teres [2], 90 to 100% in the data set with Alternaria brassicae and 90 to 100% in [5]. The inhibition at 20 ppm (in the data set on Pyrenophora teres [7]; in data set [4]; with Alternaria alternata; in the data set on Botrytis cinerea [6]) was 90 to 100% in each case. The same compound returned a chromatographic logP in [3] (setting [8]) of 4.45.

Turning to `Cc1ccc(C(F)(F)CNC(=O)c2c(Oc3cccc(Cl)c3)nnc3ccccc23)c(C)c1` [I-024], the pest or weed control at 500 ppm with Botrytis cinerea [1] fell in the range of 90 to 100%; in the data set on Pyrenophora teres [2], 70 to 79%; in the data set on Alternaria brassicae, 90 to 100%; in [5] it was 90 to 100%; in the data set with Sphaerotheca fuliginea, 90 to 100%. This compound also registered a chromatographic logP in [3] (setting [8]) of 4.2. For the same compound, the inhibition at 20 ppm (in data set [4]; with Alternaria alternata) was 90 to 100% each time.

Consider `Cc1ccc(CCNC(=O)c2c(Oc3cccc(C(F)(F)F)c3)cnc3c2OCCO3)c(C)c1` [I-110], for which the pest or weed control at 500 ppm (with Botrytis cinerea [1]; in the data set on Pyrenophora teres [2]; in the data set on Alternaria brassicae; in data set [5]; in the data set with Sphaerotheca fuliginea) was 90 to 100% throughout. The compound also gave a chromatographic logP in [3] (setting [8]) of 3.6. For the same compound, the inhibition at 20 ppm (in [4]; with Alternaria alternata) was 90 to 100% each time.

In the case of `O=C(NC[C@H](F)c1ccc(Cl)cc1Cl)c1c(Oc2cccc(C(F)(F)F)c2)cnc2c1OCCO2` (racemic) [I-108], the pest or weed control at 500 ppm (with Botrytis cinerea [1]; in the data set on Pyrenophora teres [2]; in the data set with Alternaria brassicae; in [5]; in the data set with Sphaerotheca fuliginea) was 90 to 100% in each case. The chromatographic logP in [3] (setting [8]) came to 3.77. Moreover, the inhibition at 20 ppm (in data set [4]; in the data set on Alternaria alternata) was 90 to 100% throughout.

Regarding `Cc1ccc2c(c1)CCC[C@@H]2NC(=O)c1c(Oc2cccc(C(F)(F)F)c2)cnc2c1OCCO2` (racemic) [I-112], the pest or weed control at 500 ppm in the data set with Botrytis cinerea [1] was in the range of 90 to 100%; with Pyrenophora teres [2] it was 80 to 89%; with Alternaria brassicae, 90 to 100%; in data set [5], 90 to 100%; in the data set with Sphaerotheca fuliginea, 90 to 100%. Also, the chromatographic logP is 3.8 in data set [3] (setting [8]); 3.79 in data set [3] (method [b]: LC-UV, neutral range, 0.001 molar ammonium acetate solution in water and acetonitrile as eluent). In addition, the inhibition at 20 ppm (in data set [4]; in the data set with Alternaria alternata) was 90 to 100% each time.

Consider `Cc1ccc(CCNC(=O)c2c(Oc3cccc(C(F)(F)F)c3)nnc3c2OCCO3)c(C)c1` [I-104], for which the pest or weed control at 500 ppm in the data set on Botrytis cinerea [1] was in the range of 90 to 100%; with Pyrenophora teres [2], 80 to 89%; with Alternaria brassicae it was 90 to 100%; in [5] it was 90 to 100%; in the data set with Sphaerotheca fuliginea, 90 to 100%. This compound also showed a chromatographic logP in [3] (setting [8]) of 3.28. Besides, the inhibition at 20 ppm in data set [4] was 80 to 89%; in the data set on Alternaria alternata, 90 to 100%.

On to `Cc1ccc(C(F)(F)CNC(=O)c2c(Oc3cccc(C(F)(F)F)c3)nnc3c2CCCCC3)c(C)c1` [I-113, N-[2-(2,4-dimethylphenyl)-2,2-difluoro-ethyl]-3-[3-(trifluoro-methyl)phenoxy]-6,7,8,9-tetrahydro-5H-cyclohepta[c]pyridazine-4-carboxamide], for which the pest or weed control at 500 ppm in the data set on Botrytis cinerea [1] fell in the range of 90 to 100%; in the data set with Pyrenophora teres [2] it was 70 to 79%; in the data set with Alternaria brassicae, 90 to 100%; in [5], 80 to 89%; in the data set with Sphaerotheca fuliginea it was 90 to 100%. The compound also came in with a chromatographic logP in [3] (setting [8]) of 4.28. The inhibition at 20 ppm (in data set [4]; with Alternaria alternata) was 90 to 100% throughout.

Turning to `O=C(NCC(F)(F)c1ccc(Br)cc1Cl)c1c(Oc2cccc(C(F)(F)F)c2)cnc2c1OCCO2` [I-107, N-[2-(4-bromo-2-chloro-phenyl)-2,2-difluoro-ethyl]-7-[3-(tri-fluoromethyl)phenoxy]-2,3-dihydro-[1,4]dioxino[2,3-b]pyridine-8-carboxamide], the pest or weed control at 500 ppm in the data set on Botrytis cinerea [1] is 90 to 100%; with Pyrenophora teres [2], 80 to 89%; in the data set with Alternaria brassicae, 90 to 100%; in data set [5] it was 90 to 100%; in the data set on Sphaerotheca fuliginea, 90 to 100%. The chromatographic logP in [3] (setting [8]) is 3.94. In addition, the inhibition at 20 ppm (in data set [4]; with Alternaria alternata) was 90 to 100% throughout.

As to `Cc1ccc(C(F)(F)CNC(=O)c2c(Oc3cccc(C4CC4)c3F)nnc3c2N[C@@H](O)CC3)c(C)c1` (racemic) [I-116], the pest or weed control at 500 ppm in the data set with Botrytis cinerea [1] is 90 to 100%; in the data set with Pyrenophora teres [2], 80 to 89%; in the data set on Alternaria brassicae, 90 to 100%; in data set [5] it was 90 to 100%; in the data set on Sphaerotheca fuliginea, 90 to 100%. This compound yielded a chromatographic logP in data set [3] (setting [8]) of 3.74. For the same compound, the inhibition at 20 ppm (in data set [4]; in the data set with Alternaria alternata) was 90 to 100% throughout.
